Literature values as cited in patent US20060177524A1, “Ocular irrigating solution” (University of Bristol, priority 1998, published 2006).

Columns and labels:
[1] = at 25° C.
[2] = test system: endothelial Na^+K^+ ATPase; details: Geroski et al 1982-83, human and rabbit corneas

## O=S(=O)(O)CCCN1CCN(CCO)CC1 [EPPS, N-[2-hydroxyethyl]-piperazine-N′-[3-propanesulfonic acid]]
[1]
  pKa: 8.0

## O=S(=O)(O)CCN1CCN(CCO)CC1 [HEPES, N-2-[hydroxyethyl]piperazine-N′-[2-ethanesulfonic acid]]
[2]
  Toxicity to endothelial Na^+K^+ ATPase: toxic
